Data taken from US20260008746A1, “CATIONIC LIPID COMPOUND WITH HIGH EFFICIENCY, LOW TOXICITY AND STABLE EXPRESSION, AND COMPOSITION COMPRISNG SAME” (HANGZHOU TIANLONG PHARMACEUTICAL CO., LTD, priority 2023, published 2026).

Legend:
[1] = Determination of particle size and polydispersity index (PDI) of lipid nanoparticles by dynamic light scattering; format: physicochemical; details: LNP formulation of named cationic lipid/DSPC/cholesterol/DMG-PEG2000 49:10:39.5:1.5; for Particle size (nm): 90° scattering angle, 25° C
Experimental: The cationic lipids listed in Table 1 were dissolved in ethanol with DSPC (AVT (Shanghai) Pharmaceutical Technology Co., Ltd.), cholesterol (AVT (Shanghai) Pharmaceutical Technology Co., Ltd.) and DMG-PEG2000 according to a molar ratio of 49:10:39.5:1.5, respectively, to prepare lipid solution in ethanol. The lipid solution in ethanol was quickly added to citrate buffer (pH=4 to 5) by ethanol injection method, and vortexed for 30 s for later use. eGFP-mRNA (from Shanghai Biohub International Trade Co., Ltd) or Fluc-mRNA (from Shanghai Biohub International Trade Co., Ltd) was diluted in citrate buffer (pH=4 to 5) to give an aqueous mRNA solution. A certain volume of liposome solution and mRNA aqueous solution were used to prepare liposomes at a weight ratio of total lipids to mRNA of 15:1. The mixtures were sonicated at 25° C. for 15 min (with an ultrasonic frequency of 40 kHz and an ultrasonic power of 800 W). The resulting liposomes were diluted to 10 times volume with PBS, and then ultrafiltered with a 300 KDa ultrafiltration tube to remove ethanol. Then the volume was fixed to a certain volume with PBS to give an LNP formulation encapsulating eGFP-mRNA or Fluc-mRNA using cationic lipid/DSPC/cholesterol/DMG-PEG2000 (49:10:39.5:1.5 in molar percentage).
The particle size and polydispersity index (PDI) were determined by dynamic light scattering using Malvern laser particle size analyzer.
10 μL of the liposome solution was weighed, diluted to 1 mL with RNase-free deionized water, and added to the sample pool. Each sample was measured in triplicate. The measurement conditions were: 90° scattering angle, and 25° C.

293T cells [2] = assay: Fluorescent detection of Fluc-mRNA (cell transfection efficiency of LNP formulations); format: cell-based; details: for Relative light unit (RLU): LNP formulation containing 0.3 μg Fluc-mRNA, 96-well plate, 24 hours; for Multiples (YK-101): RLU of YK-101 / RLU of named substance; for Multiples (YK-107): RLU of YK-107 / RLU of named substance; for Multiples (YK-108): RLU of YK-108 / RLU of named substance; for Ratio relative to SM-102: RLU of named substance / RLU of SM-102; for difference from SM-102 in Fluc-mRNA fluorescence (GraphPad Prism analysis): statistical comparison with SM-102; for fluorescence absorption value, times that of HHMA: RLU of named substance / RLU of HHMA; for fluorescence absorption value, times that of Lipofectamine 3000: RLU of named substance / RLU of Lipofectamine 3000; for Fluc-mRNA expression signal intensity, times that of compound 21: RLU of named substance / RLU of compound 21; for fluorescence absorption value, times that of compound 23: RLU of named substance / RLU of compound 23
Experimental: (§1) Cell recovery and passage: 293T cells were recovered, cultured in a culture dish, and passaged to the required number of cells.
(§2) Seeding plate: The cells in the culture dish were digested and counted. Cells were spread in a 96-well plate at 10,000 cells per well and in a 12-well plate at 150,000 cells per well. Cells were cultured overnight until the cells adhered to the wall.
Cell recovery and passage: the method was the same as in Example 3.
Seeding plate: the method was the same as in Example 3.
An LNP formulation containing 0.3 μg of Fluc-mRNA (the carrier components of the LNP formulation were cationic lipid, neutral lipid, structured lipid and polymer-conjugated lipid with a molar ratio of 49:10:39.5:1.5, wherein the cationic lipid was listed in Table 1) was added to the cell culture medium of a 96-well plate, and further incubated for 24 hours. The corresponding reagent was added according to the instructions of the Gaussia Luciferase Assay Kit, and the fluorescence expression intensity of each well was detected by an IVIS fluorescence detection system. This test verified the transfection efficiencies of LNP formulations in cells, see Tables 3-6 for specific test results.

293T cells [3] = assay: Cell survival rate determination (CCK-8); format: cell-based; details: for Cell survival rate (%): LNP formulation containing 1.5 μg Fluc-mRNA, 24 hours, CCK-8, absorbance at 450 nm; for cell survival rate lower than that of YK-101: cell survival rate of YK-101 minus that of named substance; for cell survival rate lower than that of YK-107: cell survival rate of YK-107 minus that of named substance; for cell survival rate lower than that of YK-108: cell survival rate of YK-108 minus that of named substance
Experimental: as §1, §2
An LNP formulation containing 1.5 μg of Fluc-mRNA (the cater component of the LNP formulation were cationic lipid, neutral lipid, structured lipid and polymer-conjugated lipid with a molar ratio of 49: 10: 39.5: 1.5, wherein the cationic lipid was listed in Table 1) and the formulation of Lipofectamine 3000 were added to the cell culture medium of a 96-well plate, and further cultivated for 24 hours. 10 μL of CCK-8 solution was then added to each well, and the culture plate was incubated in an incubator for 1 hour. The absorbance at 450 nm was measured by a microplate reader.

Row | PDI(%) [1] [%] | Particle size (nm) [1] [nm] | SMILES | cell transfection activity, times that of YK-109 (293T cells [2]) [times] | Relative light unit (RLU) (293T cells [2]) | Multiples (YK-101) (293T cells [2]) | Multiples (YK-107) (293T cells [2]) | Multiples (YK-108) (293T cells [2]) | Ratio relative to SM-102 (293T cells [2]) | difference from SM-102 in Fluc-mRNA fluorescence (GraphPad Prism analysis) (293T cells [2]) | Cell survival rate (%) (293T cells [3]) | cell survival rate lower than that of YK-101 (293T cells [3]) [%] | cell survival rate lower than that of YK-107 (293T cells [3]) [%] | cell survival rate lower than that of YK-108 (293T cells [3]) [%] | fluorescence absorption value, times that of HHMA (293T cells [2]) [times] | fluorescence absorption value, times that of Lipofectamine 3000 (293T cells [2]) [times] | Fluc-mRNA expression signal intensity, times that of compound 21 (293T cells [2]) [times] | fluorescence absorption value, times that of compound 23 (293T cells [2]) [times] | cell transfection efficiency, times that of YK-121 (293T cells [2]) [times]
1 | 21.5 | 179 | CCCCCCCCCCOC(=O)CCCCCN(CCO)CCCCCC(=O)OCCC(CCCCCC)CCCCCC [YK-103, 3-hexylnonyl-6-((6-(decyloxy)-6-oxohexyl)(2-hydroxyethyl)amino)hexanoate] | 3.2 | 2312883 | 8.79 | 9.67 | 10.66 | 1.51 | no significant difference | 45.25 | 44.87 | 45.20 | 44.61 |  |  |  |  | 
2 | 18.6 | 109 | CCCCCCCCCCOC(=O)CCCN(CCO)CCCCCCOC(=O)CC(CCCCCC)CCCCCC [YK-105] |  | 1593805 | 12.76 | 14.03 | 15.47 | 1.04 | no significant difference | 78.58 | 11.54 | 11.87 | 11.28 |  |  |  |  | 
3 | 21.8 | 167 | CCCCCCCCCCOC(=O)CCCN(CCCCCC(=O)OCCC(CCCCCC)CCCCCC)C[C@@H](O)CO [YK-115] |  | 1427501 | 14.25 | 15.66 | 17.28 | 0.93 |  | 59.07 | 31.05 | 31.38 | 30.79 | 0.70 | 1.33 | 1.03 | 1.11 | 
4 | 25.1 | 192 | CCCCCCCCCCOC(=O)CCCN(CCCCCC(=O)OCCC(CCCCCC)CCCCCC)CCOCCOCCO [YK-121, 3-hexylnonyl 6-(4-(decyloxy)-4-oxobutyl)(2-(2-(2-hydroxyethoxy)ethoxy-ethyl)amino)hexanoate] |  | 427603 |  | 52.29 |  | 0.28 | significant difference | 73.11 | 17.01 | 17.34 | 16.75 | 0.21 | 0.40 | 0.31 | 0.33 | 
5 | 7.7 | 205 | CCCCCCCCCCOC(=O)CCCN(CCCCCC(=O)OCC(CCCCCCCC)CCCCCCCC)CCOCCOCCO [YK-122, 2-octyldecyl 6-(4-(decyloxy)-4-oxobutyl)(2-(2-(2-hydroxyethoxy)ethoxy-ethyl)amino)hexanoate] |  | 1418705 | 14.33 | 15.76 | 17.38 | 0.92 | no significant difference | 79.15 | 10.97 | 11.30 | 10.71 | 0.69 | 1.32 | 1.02 | 1.10 | 3.3
6 | 14.7 | 216 | CCCCCCCCCCOC(=O)CCCN(CCCCCC(=O)OCC(CCCCCCCC)CCCCCCCC)CCOCCO [YK-124, 2-octyldecyl 6-(4-(decyloxy)-4-oxobutyl)(2-(2-hydroxyethoxy-ethyl)amino)hexanoate] |  | 81596 |  |  |  | 0.05 | significant difference | 77.56 | 12.56 | 12.89 | 12.30 | 0.04 | 0.08 | 0.06 | 0.06 | 
7 | 26.4 | 220 | CCCCCCCCCCOC(=O)CCCN(CCCCCC(=O)OCCC(CCCCCC)CCCCCC)CCOC(=O)CCCN(C)C [YK-125] |  | 169824 |  | 131.67 |  | 0.11 | significant difference | 35.39 | 54.73 | 55.06 | 54.47 | 0.08 | 0.16 | 0.12 | 0.13 | 
